Data from patent US12202829B2, “Heterocyclic compound” (FIMECS, Inc., priority 2018, dated 2025).
Structures can show the parent of a compound that is named as a salt.

How the values were obtained:
[1] = molecular target: T1, human XIAP_BIR3 domain purified protein (Homo sapiens, UniProt P98170); test: XIAP binding inhibitory activity, HTRF method with b-Smac ligand; conditions: for IC50: second symbol of the cell, read-out: XIAP binding 50% inhibitory concentration (IC50 value); for inhibition at 3 µM: test compound 3 μM, first symbol of the cell, read-out: XIAP binding inhibition rate when the concentration of the test compound is 3 μM
T1 construct: purchased R & D
T1 sequence (P98170 252-356 limits assumed): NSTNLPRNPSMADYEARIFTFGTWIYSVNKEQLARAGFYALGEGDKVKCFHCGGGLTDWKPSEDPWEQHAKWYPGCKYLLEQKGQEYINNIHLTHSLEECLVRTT
How it was run: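 HTRF competition: human XIAP BIR3 and C-terminally biotinylated Smac peptide AVPIAQK, each diluted to 90 nM before addition, in HEPES pH 7.5 buffer with NaCl, BSA, Triton X-100. Eu-cryptate anti-His/streptavidin-XL665 detection after ≥4 h at room temperature; inhibition % from 665/615 ratio versus no-compound control.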

XIAP = molecular target: T2, XIAP (Homo sapiens, UniProt P98170); test: In vitro degradation activity of XIAP in THP1 cells, western blotting; assay type: cell-based; conditions: test compound 10 μM, 24 hours, relative to DMSO control set at 100
T2 construct: endogenous in cells; host or cells: THP1 (ATCC)
T2 sequence (P98170 whole entry): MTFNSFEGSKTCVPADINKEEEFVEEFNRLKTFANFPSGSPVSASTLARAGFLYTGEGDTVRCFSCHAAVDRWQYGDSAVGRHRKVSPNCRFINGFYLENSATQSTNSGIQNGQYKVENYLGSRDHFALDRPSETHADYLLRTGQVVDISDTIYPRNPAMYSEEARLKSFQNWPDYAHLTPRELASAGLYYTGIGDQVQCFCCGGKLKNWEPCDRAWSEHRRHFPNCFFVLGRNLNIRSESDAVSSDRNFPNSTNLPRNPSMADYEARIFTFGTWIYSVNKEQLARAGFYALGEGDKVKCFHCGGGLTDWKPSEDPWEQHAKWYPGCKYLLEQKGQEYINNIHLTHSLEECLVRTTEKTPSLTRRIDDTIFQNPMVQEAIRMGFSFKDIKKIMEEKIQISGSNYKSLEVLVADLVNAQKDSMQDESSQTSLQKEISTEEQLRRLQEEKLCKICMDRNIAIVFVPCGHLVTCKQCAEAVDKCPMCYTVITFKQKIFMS
Experimental: In vitro degradation activities of XIAP of the example compounds were evaluated by the following method. THP1 cells were purchased from ATCC and cultured in RPMI-1640 supplemented with 10% FBS and 1% penicillin/streptomycin. THP1 cells were seeded at a density of 1×10^6 cells/well in 24-well plate and treated with DMSO control or Example 86 and 87 (0.001, 0.01, 0.1, 1, 10 μM), and then incubated for 24 hours. The cells were collected and lysed on ice for 30 minutes in lysis buffer (0.5% Triton X-100, 0.01 M Tris-HCl (pH 8.0), 0.15 M NaCl) containing a protease inhibitor cocktail (Sigma-Aldrich). The lysates were sonicated for 30 sec ON/30 sec OFF for ten cycles and centrifuged for 15 minutes at 15 krpm at 4° C. Protein concentrations were determined by the BCA assay (Thermo Fisher). Proteins were separated with Nu-PAGE (Thermo Fisher) and analyzed by western blotting (standard protocol) using antibodies of anti-XIAP (Cell Signaling #14334), and β-actin (Sigma #A2066). Bands (luminescent intensities) were quantified using LAS-4000 luminescent image analyzer (Fuji). The values of XIAP were corrected by the internal control value of β-actin and analyzed relative to DMSO control set at 100. The remaining protein rate (%) are described as A≤25%, 25%<B≤50%, 50%<C≤75%, D>75% when the concentration of the test compound is 10 μM.

BCR-ABL = molecular target: T3, BCR-ABL (Homo sapiens, UniProt P00519); test: In vitro degradation activity of BCR-ABL in K562 cells, western blotting; assay type: cell-based; conditions: test compound 30 μM, 24 hours, relative to DMSO control set at 100
T3 construct: BCR N-terminal part (natural fusion partner, P11274); endogenous in cells; host or cells: K562 (ECACC); the other entry of the earlier key: BCR (P11274, Breakpoint cluster region protein)
T3 sequence (P00519 with tags, fused parts or gaps): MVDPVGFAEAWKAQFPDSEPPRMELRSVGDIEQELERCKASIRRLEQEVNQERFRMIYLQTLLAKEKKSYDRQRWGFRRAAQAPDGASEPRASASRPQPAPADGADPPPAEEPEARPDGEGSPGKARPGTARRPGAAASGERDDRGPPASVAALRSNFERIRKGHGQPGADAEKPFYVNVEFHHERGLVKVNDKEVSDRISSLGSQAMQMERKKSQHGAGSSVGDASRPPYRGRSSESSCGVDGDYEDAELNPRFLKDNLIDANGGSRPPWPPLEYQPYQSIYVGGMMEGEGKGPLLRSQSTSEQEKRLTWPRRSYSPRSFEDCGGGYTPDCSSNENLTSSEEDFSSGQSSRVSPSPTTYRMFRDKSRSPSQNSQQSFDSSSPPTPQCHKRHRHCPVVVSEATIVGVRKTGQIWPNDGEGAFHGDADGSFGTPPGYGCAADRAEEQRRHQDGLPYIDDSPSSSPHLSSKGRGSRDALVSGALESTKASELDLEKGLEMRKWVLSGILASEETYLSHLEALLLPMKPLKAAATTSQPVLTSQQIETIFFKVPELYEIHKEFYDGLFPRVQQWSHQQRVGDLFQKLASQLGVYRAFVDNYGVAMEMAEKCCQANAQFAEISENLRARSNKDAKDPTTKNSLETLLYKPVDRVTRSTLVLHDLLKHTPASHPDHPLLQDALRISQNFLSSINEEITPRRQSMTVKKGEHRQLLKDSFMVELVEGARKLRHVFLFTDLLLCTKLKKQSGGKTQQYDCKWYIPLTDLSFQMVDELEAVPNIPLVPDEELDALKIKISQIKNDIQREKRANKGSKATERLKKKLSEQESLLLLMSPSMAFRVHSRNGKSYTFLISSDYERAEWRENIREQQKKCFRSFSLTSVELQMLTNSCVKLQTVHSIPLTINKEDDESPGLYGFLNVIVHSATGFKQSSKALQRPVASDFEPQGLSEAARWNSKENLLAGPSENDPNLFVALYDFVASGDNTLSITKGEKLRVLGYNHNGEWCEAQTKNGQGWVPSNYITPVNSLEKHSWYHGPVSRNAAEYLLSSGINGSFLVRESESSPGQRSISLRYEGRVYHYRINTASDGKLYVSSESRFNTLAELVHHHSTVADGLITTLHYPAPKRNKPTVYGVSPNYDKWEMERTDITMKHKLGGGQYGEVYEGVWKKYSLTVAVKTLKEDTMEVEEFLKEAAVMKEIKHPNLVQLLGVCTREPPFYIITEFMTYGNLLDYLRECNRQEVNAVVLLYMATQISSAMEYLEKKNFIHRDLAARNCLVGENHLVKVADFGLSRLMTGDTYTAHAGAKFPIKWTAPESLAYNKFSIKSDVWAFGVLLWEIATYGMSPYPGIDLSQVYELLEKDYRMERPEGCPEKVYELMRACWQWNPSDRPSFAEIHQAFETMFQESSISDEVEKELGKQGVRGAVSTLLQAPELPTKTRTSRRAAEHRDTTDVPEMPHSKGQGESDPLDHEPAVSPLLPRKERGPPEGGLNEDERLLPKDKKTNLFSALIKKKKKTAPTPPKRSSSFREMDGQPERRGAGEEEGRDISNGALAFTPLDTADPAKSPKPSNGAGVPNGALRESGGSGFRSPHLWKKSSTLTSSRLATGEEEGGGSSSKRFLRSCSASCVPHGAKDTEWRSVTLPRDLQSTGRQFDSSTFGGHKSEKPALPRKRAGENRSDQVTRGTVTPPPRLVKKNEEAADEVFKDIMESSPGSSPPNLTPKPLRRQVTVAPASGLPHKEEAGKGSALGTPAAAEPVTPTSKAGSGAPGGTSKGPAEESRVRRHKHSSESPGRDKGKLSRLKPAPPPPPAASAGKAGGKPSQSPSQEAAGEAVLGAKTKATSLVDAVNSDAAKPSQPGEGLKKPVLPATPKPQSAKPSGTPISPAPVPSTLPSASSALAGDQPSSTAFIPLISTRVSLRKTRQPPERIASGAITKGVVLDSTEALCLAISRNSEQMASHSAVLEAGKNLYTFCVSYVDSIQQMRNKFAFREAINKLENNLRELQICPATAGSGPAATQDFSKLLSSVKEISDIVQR
Experimental: In vitro degradation activities of BCR-ABL of the example compounds were evaluated by the following method. K562 cells were purchased from ECACC and cultured in RPMI-1640 supplemented with 10% FBS and 1% penicillin/streptomycin. K562 cells were seeded at a density of 1×10^6 cells/well in 24-well plate and treated with DMSO control or Example 80 and 81 (1, 3, 10, 30 μM), and then incubated for 24 hours. The cells were collected and lysed on ice for 30 minutes in lysis buffer (0.5% Triton X-100, 0.01 M Tris-HCl (pH 8.0), 0.15 M NaCl) containing a protease inhibitor cocktail (Sigma-Aldrich). The lysates were vortexed for 2 minutes and centrifuged for 15 minutes at 15 krpm at 4° C. Protein concentrations were determined by the BCA assay (Thermo Fisher). Proteins were separated with Nu-PAGE (Thermo Fisher) and analyzed by western blotting (standard protocol) using antibodies of anti-BCR (Cell Signaling #3902), and R-actin (Sigma #A2066). Bands (luminescent intensities) were quantified using LAS-4000 luminescent image analyzer (Fuji). The values of BCR-ABL were corrected by the internal control value of R-actin and analyzed relative to DMSO control set at 100. The remaining protein rate (%) are described as A≤25%, 25%<B≤50%, 50%<C≤75%, D>75% when the concentration of the test compound is 30 μM.

| IC50 [1] [nM] | remaining protein rate (%) BCR-ABL (BCR-ABL) | Compound | inhibition at 3 µM [1] [%] | remaining protein rate (%) XIAP (XIAP) |
| --- | --- | --- | --- | --- |
|  |  | CN[C@@H](C)C(=O)N[C@H](C(=O)N1CCN(C(=O)c2cc3cc(F)ccc3n2CC(=O)NCCOCCNC(=O)Cn2c(C(=O)N3CCN(C(=O)[C@@H](NC(=O)[C@H](C)NC)C4CCCCC4)CC3)cc3cc(F)ccc32)CC1)C1CCCCC1 [Example 87, (S)—N—((S)-1-Cyclohexyl-2-(4-(1-(2-((2-(2-(2-(2-(4-((R)-2-cyclohexyl-2-((R)-2-(methylamino)propanamide)acetyl)piperazine-1-carbonyl)-5-fluoro-1H-indol-1-yl)acetamide)ethoxy)ethyl)amino)-2-oxoethyl)-5-fluoro-1H-indole-2-carbonyl)piperazin-1-yl)-2-oxoethyl)-2-(methylamino)propanamide bistrifluoroacetate] | > 75 | C (50%<C≤75%) |
| 300 to 3000 | C (50%<C≤75%) | CN[C@@H](C)C(=O)N[C@H](C(=O)N1CCN(C(=O)c2c(C(=O)NCCOCCN3CCN(c4cc(Nc5ncc(C(=O)Nc6c(C)cccc6Cl)s5)nc(C)n4)CC3)c3cc(F)c(F)cc3n2C)CC1)C1CCCCC1 [Example 80, N-(2-Chloro-6-methylphenyl)-2-((6-(4-(2-(2-(2-(4-((S)-2-cyclohexyl-2-((S)-2-(methylamino)propanamide)acetyl)piperazine-1-carbonyl)-5,6-difluoro-1-methyl-1H-indole-3-carboxamido)ethoxy)ethyl)piperazin-1-yl)-2-methylpyrimidin-4-yl)amino)thiazole-5-carboxamide] |  |  |
| 300 to 3000 | D (D>75%) | CN[C@@H](C)C(=O)N[C@H](C(=O)N1CCN(C(=O)c2c(C(=O)NCCOCCOCCN3CCN(c4cc(Nc5ncc(C(=O)Nc6c(C)cccc6Cl)s5)nc(C)n4)CC3)c3cc(F)c(F)cc3n2C)CC1)C1CCCCC1 [Example 81, N-(2-Chloro-6-methylphenyl)-2-((6-(4-(2-(2-(2-(2-(4-((S)-2-cyclohexyl-2-((S)-2-(methylamino)propanamido)acetyl)piperazine-1-carbonyl)-5,6-difluoro-1-methyl-1H-indole-3-carboxamido)ethoxy)ethoxy)ethyl)piperazin-1-yl)-2-methylpyrimidin-4-yl)amino)thiazole-5-carboxamide trifluoroacetate] |  |  |

| Compound | IC50 [1] [nM] | remaining protein rate (%) BCR-ABL (BCR-ABL) | inhibition at 3 µM [1] [%] | remaining protein rate (%) XIAP (XIAP) |
| --- | --- | --- | --- | --- |
| CN[C@@H](C)C(=O)N[C@H](C(=O)N1CCN(C(=O)c2c(C(=O)NCCOCCOCCNC(=O)c3c(C(=O)N4CCN(C(=O)[C@@H](NC(=O)[C@H](C)NC)C5CCCCC5)CC4)n(C)c4ccc(F)cc34)c3cc(F)ccc3n2C)CC1)C1CCCCC1 [Example 86, N,N′-((Ethan-1,2-diylbis(oxy))bis(ethan-2,1-diyl))bis(2-(4-((S)-2-cyclohexyl-2-((S)-2-(methylamino)propanamido)acetyl)piperazine-1-carbonyl)-5-fluoro-1-methyl-1H-indole-3-carboxamide) bistrifluoroacetate] | < 300 |  | > 75 | C (50%<C≤75%) |
